US4511560A, “Antibiotic substances DC-45, and their use as medicaments” (Kyowa Hakko Kogyo Kabushiki Kaisha, priority 1979, dated 1985)

How the values were obtained:
[1] = test system: Lymphocytic leukaemia P-388 tumour; assay: Anti-tumour activity on Lymphocytic leukaemia P-388 tumour; type: in vivo, mice (male; CDF1 strain); details: 5.6 mg/kg, abdominally
Description: Mice (male; CDF1 strain; weight about 22 g; each group consisting of 5 mice) were used as the test animals. Lymphocytic leukaemia P-388 tumour cells (each 1×10^6 cells) were intraperitoneally implanted into each mouse. 24 hours after this, a phosphate buffered physiological solution of sodium chloride (each 0.2 ml) was intraperitioneally injected once into each mouse, a given amount of one substance being contained in each solution so that a different substance is administered to each group of mice. For comparison, a similar phosphate buffered solution of sodium chloride containing mitomycin C was admnistered abdominally to each mouse of a further control group. Table 4 indicates the average survival time in days and T/C (mean value of the survival days of the animals treated with the test compound/mean value of the survival days of the control animals treated with 0.2 ml of the phosphate buffered solution of sodium chloride).

Sarcoma 180 solid tumour = assay: Therapeutic effect on Sarcoma 180 solid tumour; type: in vivo, mice (male; ddy-strain); details: 5.6 mg/kg, abdominally, single, day 7
Description: Mice (male; ddy-strain; weight about 20 g; each group consisting of 6 mice) were used as test animals. Sarcoma 180 tumour cells (each 5×10^6cells) were subcutaneously implanted into each mouse at the armpit. 24 hours after this, a phosphate buffered physiological solution of sodium chloride (each 0.2 ml) was intraperitoneally administered to each mouse, a given amount of one of the substances DC-45-A, DC-45-B1 and DC-45-B2 being contained in each solution so that a different substance is administered to each group of mice. The said phosphate buffer contained NaCl (0.8 g/dl), KCl (0.02 g/dl), […] (1.15 g/dl) and KH2 PO4 (0.02 g/dl). For comparison purpose, a similar phosphate buffered solution containing mitomycin C (0.2 ml) was abdominally administered to the mice of another group 24 hours after the implantation of the tumour cells. Table 3 indicates the volume of the tumour (mean value in mm^3) and T/C (mean value; the tumour volume of the animal treated with the test compound/the tumour volume of the control animal treated with 0.2 ml of the phosphate buffered solution of sodium chloride, both being determined 7 days after the implantation.

Structure (SMILES): CO[C@@]12[C@H](COC(N)=O)C3=C(C(=O)C(C)=C(N)C3=O)N1C[C@@H]1N[C@@H]12 [Mitomycin C, mitomycin C]
- Survival days [1]: 18.0 ± 1.4 days
- T/C (survival days) [1]: 1.88
- T/C (tumour volume) (Sarcoma 180 solid tumour): 0.20
- Volume of tumour (mean value) (Sarcoma 180 solid tumour): 282 mm^3
